Laboratory results: US6967215B2, “Tetrahydrocarbazoles, a process for the preparation of those compounds, and the use thereof” (Ciba Specialty Chemicals Corporation, priority 2000, dated 2005)

Experiments:
Assay in all cases: MIC, microtitre dilution test (growth by optical density at 620 nm)
Assay type in all cases: cell-based
[1] = tested on: Enterococcus hirae ATCC 10541; conditions: Table 3
Protocol: (§1) Casein/soybean flour peptone bouillon for the preparation of pre-cultures of the test bacteria and yeast.
(§2) The test substances are predissolved in dimethyl sulfoxide (DMSO) and tested in a dilution series of 1:2.
(§3) Bacteria and yeast are cultured overnight in CASO bouillon, the mould is cultured overnight on mycological slant agar, and washed off with 10 ml of 0.85% sodium chloride solution (+0.1% TritonX-100).
(§4) All the test organisms are adjusted to an organism count of 1-5×10^6 CFU/ml using 0.85% sodium chloride solution.
(§5) The test substances are pre-pipetted into microtitre plates in an amount of 8 μl per well.
(§6) Pre-diluted organism suspensions are diluted 1:100 in CASO bouillon (bacteria and yeast) or Sabouraud 2% glucose bouillon (mould) and are added in an amount of 192 μl per well to the test substances.
(§7) The test batches are incubated for 48 hours at 37° C. (bacteria and yeast) or for 5 days at 28° C. (mould).
(§8) After incubation, the growth is evaluated by reference to the turbidity of the test batches (optical density) at 620 nm in a microplate reader.
(§9) The minimum inhibitory concentration (MIC value) is the concentration of substance at which (compared with the growth of the control) an appreciable inhibition of growth (≦20% growth) of the test organisms is ascertained.
(§10) One microtitre plate is used for each test organism and substance concentration. All the substances are tested in duplicate.

[2] = tested on: Corynebacterium xerosis ATCC 373; conditions: Table 3
Protocol: as §1, §2, §3, §4, §5, §6, §7, §8, §9, §10

[3] = tested on: Candida albicans ATCC 10259; conditions: Table 3
Protocol: as §1, §2, §3, §4, §5, §6, §7, §8, §9, §10

[4] = tested on: Staphylococcus hominis DMS 20328; conditions: for MIC Staphylococcus hominis DSM 20328: Table 3; for MIC [ppm] S. hominis: Table 5
Protocol: as §1, §2, §3, §4, §5, §6, §7, §8, §9, §10

[5] = tested on: Micrococcus luteus ATCC 9341; conditions: Table 3
Protocol: as §1, §2, §3, §4, §5, §6, §7, §8, §9, §10

[6] = tested on: Staphylococcus epidermidis ATCC 12228; conditions: Table 3
Protocol: as §1, §2, §3, §4, §5, §6, §7, §8, §9, §10

[7] = tested on: Escherichia coli NCTC 8196; conditions: Table 5
Protocol: as §1, §2, §3, §4, §5, §6, §7, §8, §9, §10

[8] = tested on: Aspergillus niger ATCC 6175; conditions: Table 5
Protocol: (§11) Nutrient: Mycological slant agar for the pre-culture of moulds [table] The test substances are predissolved in dimethyl sulfoxide (DMSO) and tested in a dilution series of 1:2. Bacteria and yeast are cultured overnight in CASO bouillon, the mould is cultured overnight on mycological slant agar, and washed off with 10 ml of 0.85% sodium chloride solution (+0.1% TritonX-100). All the test organisms are adjusted to an organism count of 1-5×10^6 CFU/ml using 0.85% sodium chloride solution. The test substances are pre-pipetted into microtitre plates in an amount of 8 μl per well. Pre-diluted organism suspensions are diluted 1:100 in CASO bouillon (bacteria and yeast) or Sabouraud 2% glucose bouillon (mould) and are added in an amount of 192 μl per well to the test substances. The test batches are incubated for 48 hours at 37° C. (bacteria and yeast) or for 5 days at 28° C. (mould). After incubation, the growth is evaluated by reference to the turbidity of the test batches (optical density) at 620 nm in a microplate reader. The minimum inhibitory concentration (MIC value) is the concentration of substance at which (compared with the growth of the control) an appreciable inhibition of growth (≦20% growth) of the test organisms is ascertained. One microtitre plate is used for each test organism and substance concentration. All the substances are tested in duplicate.

P. aeruginosa = conditions: Table 5
Protocol: as §11, with “All” for “Nutrient: Mycological slant agar for the pre-culture of moulds [table] The test substances are predissolved in dimethyl sulfoxide (DMSO) and tested in a dilution series of 1:2. Bacteria and yeast are cultured overnight in CASO bouillon, the mould is cultured overnight on mycological slant agar, and washed off with 10 ml of 0.85% sodium chloride solution (+0.1% TritonX-100). All”

## CCc1cccc2c3c([nH]c12)C1C(=O)NC(=O)C1C1CCCCCCC31 (stereo not drawn) [compound 89]
[1]
  MIC Enterococcus hirae ATCC 10541: >120 ppm
[2]
  MIC Corynebacterium xerosis ATCC 373: ≦3.75 ppm
[3]
  MIC Candida albicans ATCC 10259: >120 ppm
[4]
  MIC Staphylococcus hominis DSM 20328: 7.5 ppm
[5]
  MIC Micrococcus luteus ATCC 9341: ≦3.75 ppm
[6]
  MIC Staphylococcus epidermidis ATCC 12228: ≦3.75 ppm

## CCCN1CCC2c3c([nH]c4c(C)cccc34)C3C(=O)NC(=O)C3C2C1 (stereo not drawn) [Compound 222]
[7]
  MIC [ppm] E. coil: 120 ppm
[4]
  MIC [ppm] S. hominis: 120 ppm
[8]
  MIC [ppm] A. niger: >120 ppm
P. aeruginosa
  MIC [ppm] P. aeruginosa: >120 ppm

## CCCN1CCC2c3c([nH]c4cc(C(F)(F)F)ccc34)C3C(=O)NC(=O)C3C2C1 (stereo not drawn) [Compound 215]
[7]
  MIC [ppm] E. coil: 60 ppm
[4]
  MIC [ppm] S. hominis: 30 ppm
[8]
  MIC [ppm] A. niger: >120 ppm
P. aeruginosa
  MIC [ppm] P. aeruginosa: 120 ppm

## CC1(C)CC2c3c([nH]c4ccccc34)C3C(=O)NC(=O)C3C2C(C)(C)C1 (stereo not drawn) [compound 63]
[1]
  MIC Enterococcus hirae ATCC 10541: 7.5 ppm
[2]
  MIC Corynebacterium xerosis ATCC 373: ≦3.75 ppm
[3]
  MIC Candida albicans ATCC 10259: >120 ppm
[4]
  MIC Staphylococcus hominis DSM 20328: 7.5 ppm
[5]
  MIC Micrococcus luteus ATCC 9341: ≦3.75 ppm
[6]
  MIC Staphylococcus epidermidis ATCC 12228: ≦3.75 ppm

## CCCN1CCC2c3c([nH]c4ccc(F)cc34)C3C(=O)NC(=O)C3C2C1 (stereo not drawn) [Compound 193]
[7]
  MIC [ppm] E. coil: 60 ppm
[4]
  MIC [ppm] S. hominis: >120 ppm
[8]
  MIC [ppm] A. niger: >120 ppm
P. aeruginosa
  MIC [ppm] P. aeruginosa: >120 ppm

## CCCN1CCC2c3c([nH]c4cc(C)ccc34)C3C(=O)NC(=O)C3C2C1 (stereo not drawn) [Compound 203]
[7]
  MIC [ppm] E. coil: >120 ppm
[4]
  MIC [ppm] S. hominis: >120 ppm
[8]
  MIC [ppm] A. niger: >120 ppm
P. aeruginosa
  MIC [ppm] P. aeruginosa: >120 ppm

## CCCN1CCC2c3c([nH]c4cc(F)c(F)cc34)C3C(=O)NC(=O)C3C2C1 (stereo not drawn) [Compound 219]
[7]
  MIC [ppm] E. coil: >120 ppm
[4]
  MIC [ppm] S. hominis: >120 ppm
[8]
  MIC [ppm] A. niger: >120 ppm
P. aeruginosa
  MIC [ppm] P. aeruginosa: >120 ppm

## CCCN1CCC2c3c([nH]c4cccc(F)c34)C3C(=O)NC(=O)C3C2C1 (stereo not drawn) [Compound 226]
[7]
  MIC [ppm] E. coil: 120 ppm
[4]
  MIC [ppm] S. hominis: 120 ppm
[8]
  MIC [ppm] A. niger: >120 ppm
P. aeruginosa
  MIC [ppm] P. aeruginosa: >120 ppm

## CCCN1CCC2c3c([nH]c4cc(OC)ccc34)C3C(=O)NC(=O)C3C2C1 (stereo not drawn) [Compound 231]
[7]
  MIC [ppm] E. coil: >120 ppm
[4]
  MIC [ppm] S. hominis: 120 ppm
[8]
  MIC [ppm] A. niger: >120 ppm
P. aeruginosa
  MIC [ppm] P. aeruginosa: 120 ppm

## COc1cccc2[nH]c3c(c12)C1CCCCCC1C1C(=O)NC(=O)C31 (stereo not drawn) [Compound 187]
[7]
  MIC [ppm] E. coil: >120 ppm
[4]
  MIC [ppm] S. hominis: 30 ppm
[8]
  MIC [ppm] A. niger: >120 ppm
P. aeruginosa
  MIC [ppm] P. aeruginosa: 60 ppm

## CCCN1CCC2c3c([nH]c4c(F)cccc34)C3C(=O)NC(=O)C3C2C1 (stereo not drawn) [Compound 211]
[7]
  MIC [ppm] E. coil: 120 ppm
[4]
  MIC [ppm] S. hominis: >120 ppm
[8]
  MIC [ppm] A. niger: >120 ppm
P. aeruginosa
  MIC [ppm] P. aeruginosa: 120 ppm

## CCCN1CCC2c3c([nH]c4cccc(OCC(O)CNC(C)C)c34)C3C(=O)NC(=O)C3C2C1 (stereo not drawn) [Compound 190]
[7]
  MIC [ppm] E. coil: >120 ppm
[4]
  MIC [ppm] S. hominis: >120 ppm
[8]
  MIC [ppm] A. niger: >120 ppm
P. aeruginosa
  MIC [ppm] P. aeruginosa: >120 ppm

## CCCN1CCC2c3c([nH]c4cc(F)ccc34)C3C(=O)NC(=O)C3C2C1 (stereo not drawn) [Compound 207]
[7]
  MIC [ppm] E. coil: >120 ppm
[4]
  MIC [ppm] S. hominis: >120 ppm
[8]
  MIC [ppm] A. niger: >120 ppm
P. aeruginosa
  MIC [ppm] P. aeruginosa: 120 ppm

## CC(C)NCC(O)COc1cccc2[nH]c3c(c12)C1CCCCCC1C1C(=O)NC(=O)C31 (stereo not drawn) [Compound 189]
[7]
  MIC [ppm] E. coil: 120 ppm
[4]
  MIC [ppm] S. hominis: 15 ppm
[8]
  MIC [ppm] A. niger: >120 ppm
P. aeruginosa
  MIC [ppm] P. aeruginosa: >120 ppm

## CCCN1CCC2c3c([nH]c4cc(OC)c(OC)cc34)C3C(=O)NC(=O)C3C2C1 (stereo not drawn) [Compound 238]
[7]
  MIC [ppm] E. coil: >120 ppm
[4]
  MIC [ppm] S. hominis: >120 ppm
[8]
  MIC [ppm] A. niger: >120 ppm
P. aeruginosa
  MIC [ppm] P. aeruginosa: >120 ppm

## CCCN1CCC2c3c([nH]c4ccc(C(=O)OC)cc34)C3C(=O)NC(=O)C3C2C1 (stereo not drawn) [Compound 235]
[7]
  MIC [ppm] E. coil: >120 ppm
[4]
  MIC [ppm] S. hominis: 120 ppm
[8]
  MIC [ppm] A. niger: >120 ppm
P. aeruginosa
  MIC [ppm] P. aeruginosa: >120 ppm

## CCCN1CCC2c3c([nH]c4cccc(C)c34)C3C(=O)NC(=O)C3C2C1 (stereo not drawn) [Compound 186]
[7]
  MIC [ppm] E. coil: >120 ppm
[4]
  MIC [ppm] S. hominis: >120 ppm
[8]
  MIC [ppm] A. niger: >120 ppm
P. aeruginosa
  MIC [ppm] P. aeruginosa: 120 ppm
